# Experimental data from US20240043404A1 (AbbVie Inc., priority 2009, published 2024).
# System: RS4;11 cells
# Assay: RS4;11 cell viability assay (CellTiter Glo);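 note: acute lymphoblastic leukemia line RS4,11, EC50 derived from percentage of viable cells after treatment relative to untreated controls, cell killing taken as a measure of Bcl-2 inhibition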
# Type: cell-based, human
# Settings: Homo sapiens, RS4-11, 48 h, 50,000 cells per well, 10% human serum, 48 hours; read-out: RS4; 11 EC50 Values
# Description: The acute lymphoblastic leukemia (ALL) cell line RS4;11 was used as the primary human cell line to assess the cellular activity of Bcl-2 selective agents in vitro and their efficacy in vivo.
# Cell cytotoxicity EC50 values were assessed using CellTiter Glo (Promega) according to the manufacturer's recommendations. The EC50 values were determined as a percentage of viable cells following treatment compared to the untreated control cells.
row,Compound,EC50
1,"CC1(C)CCC(CN2CCN(c3ccc(C(=O)NS(=O)(=O)c4cnc(OCC5COCCO5)c(Br)c4)c(Oc4cnc5[nH]ccc5c4)c3)CC2)=C(c2ccc(Cl)cc2)C1 (centres unmarked) [Example 50, N-{[5-bromo-6-(1,4-dioxan-2-ylmethoxy)pyridin-3-yl]sulfonyl}-4-(4-{[2-(4-chlorophenyl)-4,4-dimethylcyclohex-1-en-1-yl]methyl}piperazin-1-yl)-2-(1H-pyrrolo[2,3-b]pyridin-5-yloxy)benzamide]",313 nM
2,"CC1(C)CCC(CN2CCN(c3ccc(C(=O)NS(=O)(=O)c4ccc(OCC5CCOC(C)(C)C5)c([N+](=O)[O-])c4)c(Oc4cnc5[nH]ccc5c4)c3)CC2)=C(c2ccc(Cl)cc2)C1 (centres unmarked) [Example 51, 4-(4-{[2-(4-chlorophenyl)-4,4-dimethylcyclohex-1-en-1-yl]methyl}piperazin-1-yl)-N-({4-[(2,2-dimethyltetrahydro-2H-pyran-4-yl)methoxy]-3-nitrophenyl}sulfonyl)-2-(1H-pyrrolo[2,3-b]pyridin-5-yloxy)benzamide]",23.1 nM
3,"CC1(C)CCC(CN2CCN(c3ccc(C(=O)NS(=O)(=O)c4cc(Cl)c(NCC5CCOCC5)c(C#N)c4)c(Oc4cnc5[nH]ccc5c4)c3)CC2)=C(c2ccc(Cl)cc2)C1 [Example 52, N-({3-chloro-5-cyano-4-[(tetrahydro-2H-pyran-4-ylmethyl)amino]phenyl}sulfonyl)-4-(4-{[2-(4-chlorophenyl)-4,4-dimethylcyclohex-1-en-1-yl]methyl}piperazin-1-yl)-2-(1H-pyrrolo[2,3-b]pyridin-5-yloxy)benzamide]",200 nM
4,"CC(=O)N1CCC(Nc2ccc(S(=O)(=O)NC(=O)c3ccc(N4CCN(CC5=C(c6ccc(Cl)cc6)CC(C)(C)CC5)CC4)cc3Oc3cnc4[nH]ccc4c3)cc2[N+](=O)[O-])CC1 [Example 53, N-({4-[(1-acetylpiperidin-4-yl)amino]-3-nitrophenyl}sulfonyl)-4-(4-{[2-(4-chlorophenyl)-4,4-dimethylcyclohex-1-en-1-yl]methyl}piperazin-1-yl)-2-(1H-pyrrolo[2,3-b]pyridin-5-yloxy)benzamide]",66.7 nM
5,"CC1(C)CCC(CN2CCN(c3ccc(C(=O)NS(=O)(=O)c4cc(F)c(NCC5CCOCC5)cc4Cl)c(Oc4cnc5[nH]ccc5c4)c3)CC2)=C(c2ccc(Cl)cc2)C1 [Example 54, N-({2-chloro-5-fluoro-4-[(tetrahydro-2H-pyran-4-ylmethyl)amino]phenyl}sulfonyl)-4-(4-{[2-(4-chlorophenyl)-4,4-dimethylcyclohex-1-en-1-yl]methyl}piperazin-1-yl)-2-(1H-pyrrolo[2,3-b]pyridin-5-yloxy)benzamide]",1920 nM
6,"CC1(C)CCC(CN2CCN(c3ccc(C(=O)NS(=O)(=O)c4ccc(NCCCN5CCOCC5)c([N+](=O)[O-])c4)c(Oc4cnc5[nH]ccc5c4)c3)CC2)=C(c2ccc(Cl)cc2)C1 [Example 55, 4-(4-{[2-(4-chlorophenyl)-4,4-dimethylcyclohex-1-en-1-yl]methyl}piperazin-1-yl)-N-({4-[(3-morpholin-4-ylpropyl)amino]-3-nitrophenyl}sulfonyl)-2-(1H-pyrrolo[2,3-b]pyridin-5-yloxy)benzamide]",13.2 nM
7,"CC1(C)CCC(CN2CCN(c3ccc(C(=O)NS(=O)(=O)c4cnc(OCC5(F)CCOCC5)c(C#N)c4)c(Oc4cnc5[nH]ccc5c4)c3)CC2)=C(c2ccc(Cl)cc2)C1 [Example 56, 4-(4-{[2-(4-chlorophenyl)-4,4-dimethylcyclohex-1-en-1-yl]methyl}piperazin-1-yl)-N-({5-cyano-6-[(4-fluorotetrahydro-2H-pyran-4-yl)methoxy]pyridin-3-yl}sulfonyl)-2-(1H-pyrrolo[2,3-b]pyridin-5-yloxy)benzamide]",86.5 nM

# Now from value to molecule:
row,EC50,Compound
1,426 nM,"CC1(C)CCC(CN2CCN(c3ccc(C(=O)NS(=O)(=O)c4cnc(OCCN5CCOCC5)c(C#N)c4)c(Oc4cnc5[nH]ccc5c4)c3)CC2)=C(c2ccc(Cl)cc2)C1 [Example 57, 4-(4-{[2-(4-chlorophenyl)-4,4-dimethylcyclohex-1-en-1-yl]methyl}piperazin-1-yl)-N-{[5-cyano-6-(2-morpholin-4-ylethoxy)pyridin-3-yl]sulfonyl}-2-(1H-pyrrolo[2,3-b]pyridin-5-yloxy)benzamide]"
2,> 5000 nM,"COCCOCCS(=O)(=O)c1ccc(S(=O)(=O)NC(=O)c2ccc(N3CCN(CC4=C(c5ccc(Cl)cc5)CC(C)(C)CC4)CC3)cc2Oc2cnc3[nH]ccc3c2)cc1Cl [Example 58, N-[(3-chloro-4-{[2-(2-methoxyethoxy)ethyl]sulfonyl}phenyl)sulfonyl]-4-(4-{[2-(4-chlorophenyl)-4,4-dimethylcyclohex-1-en-1-yl]methyl}piperazin-1-yl)-2-(1H-pyrrolo[2,3-b]pyridin-5-yloxy)benzamide]"
3,722 nM,"COCCOCCS(=O)(=O)c1ccc(S(=O)(=O)NC(=O)c2ccc(N3CCN(CC4=C(c5ccc(Cl)cc5)CC(C)(C)CC4)CC3)cc2Oc2cnc3[nH]ccc3c2)cc1[N+](=O)[O-] [Example 59, 4-(4-{[2-(4-chlorophenyl)-4,4-dimethylcyclohex-1-en-1-yl]methyl}piperazin-1-yl)-N-[(4-{[2-(2-methoxyethoxy)ethyl]sulfonyl}-3-nitrophenyl)sulfonyl]-2-(1H-pyrrolo[2,3-b]pyridin-5-yloxy)benzamide]"
4,59.5 nM,"CC1(C)CCC(CN2CCN(c3ccc(C(=O)NS(=O)(=O)c4ccc(O[C@H]5CC[C@H](N6CCOCC6)CC5)c([N+](=O)[O-])c4)c(Oc4cnc5[nH]ccc5c4)c3)CC2)=C(c2ccc(Cl)cc2)C1 [Example 60, Trans-4-(4-{[2-(4-chlorophenyl)-4,4-dimethylcyclohex-1-en-1-yl]methyl}piperazin-1-yl)-N-({4-[(4-morpholin-4-ylcyclohexyl)oxy]-3-nitrophenyl}sulfonyl)-2-(1H-pyrrolo[2,3-b]pyridin-5-yloxy)benzamide]"
5,25.1 nM,"CC1(C)CCC(CN2CCN(c3ccc(C(=O)NS(=O)(=O)c4ccc(NCCC#N)c([N+](=O)[O-])c4)c(Oc4cnc5[nH]ccc5c4)c3)CC2)=C(c2ccc(Cl)cc2)C1 [Example 62, 4-(4-{[2-(4-chlorophenyl)-4,4-dimethylcyclohex-1-en-1-yl]methyl}piperazin-1-yl)-N-({4-[(2-cyanoethyl)amino]-3-nitrophenyl}sulfonyl)-2-(1H-pyrrolo[2,3-b]pyridin-5-yloxy)benzamide]"
6,7.51 nM,"CC1(C)CC(c2ccc(Cl)cc2)=C(CN2CCN(c3ccc(C(=O)NS(=O)(=O)c4ccc(N[C@H]5CC[C@@H](N6CCOCC6)CC5)c([N+](=O)[O-])c4)c(Oc4cnc5[nH]ccc5c4)c3)CC2)CO1 [Example 63, Cis-4-(4-{[4-(4-chlorophenyl)-6,6-dimethyl-5,6-dihydro-2H-pyran-3-yl]methyl}piperazin-1-yl)-N-({4-[(4-morpholin-4-ylcyclohexyl)amino]-3-nitrophenyl}sulfonyl)-2-(1H-pyrrolo[2,3-b]pyridin-5-yloxy)benzamide]"
7,0.25 nM,"CC1(C)CCC(CN2CCN(c3ccc(C(=O)NS(=O)(=O)c4ccc(N[C@H]5CC[C@H](N(CC6CC6)CC6CC6)CC5)c([N+](=O)[O-])c4)c(Oc4cnc5[nH]ccc5c4)c3)CC2)=C(c2ccc(Cl)cc2)C1 [Example 64, Trans-N-{[4-({4-[bis(cyclopropylmethyl)amino]cyclohexyl}amino)-3-nitrophenyl]sulfonyl}-4-(4-{[2-(4-chlorophenyl)-4,4-dimethylcyclohex-1-en-1-yl]methyl}piperazin-1-yl)-2-(1H-pyrrolo[2,3-b]pyridin-5-yloxy)benzamide]"
